From ChEMBL document CHEMBL1201862, “PubChem BioAssay data set” (2004)
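Test compounds were applied to cells in 96-well plates for 48 hours at 5 doses. Here, GI50 denotes the concentration required for 50% inhibition of growth.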 Active and inactive are the calls of the source. Cut-off read from the data, not from the text of the source: active = GI50 up to about 1.1 µM and inactive = higher.

Legend:
Test in all cases: inhibition of tumour cell growth, NCI panel, 48 h
[1] = system: K562
[2] = system: SR
[3] = system: MDA-MB-435
[4] = system: T47D
[5] = system: 786-0
[6] = system: A549
[7] = system: NCI-H226
[8] = system: SN12C
[9] = system: SK-MEL-5
[10] = system: HOP-62
[11] = system: HT-29
[12] = system: CAKI-1
[13] = system: COLO 205
[14] = system: SK-OV-3
[15] = system: LOX IMVI
[16] = system: SF-295
[17] = system: KM12
[18] = system: UACC-62
[19] = system: HOP-92
[20] = system: MCF7
[21] = system: RXF 393
[22] = system: Malme-3M
[23] = system: PC-3
[24] = system: SF-268
[25] = system: TK-10
[26] = system: ACHN
[27] = system: OVCAR-4
[28] = system: IGROV-1
[29] = system: MOLT-4
[30] = system: CCRF-CEM
[31] = system: HCT-15
[32] = system: NCI-H522
[33] = system: NCI/ADR-RES
[34] = system: OVCAR-5
[35] = system: U-251
[36] = system: HCC 2998
[37] = system: OVCAR-8
[38] = system: UACC-257
[39] = system: SNB-75
[40] = system: EKVX
[41] = system: SK-MEL-2
[42] = system: UO-31
[43] = system: M14
[44] = system: RPMI-8226
[45] = system: SW-620
[46] = system: OVCAR-3
[47] = system: BT-549
[48] = system: SF-539
[49] = system: A498
[50] = system: SNB-19
[51] = system: NCI-H23
[52] = system: Hs-578T
[53] = system: MDA-N
[54] = system: MDA-MB-231
[55] = system: NCI-H460
[56] = system: HCT-116
[57] = system: SK-MEL-28
[58] = system: DU-145
[59] = system: HL-60

## O=C1C2CCCCC2C(=O)N1n1c(-c2ccccc2)n[nH]c1=O (stereo not given)
[1]
  GI50: > 100 µM (inactive)
[2]
  GI50: > 100 µM (inactive)
[3]
  GI50: > 100 µM (inactive)
[4]
  GI50: > 100 µM (inactive)
[5]
  GI50: > 100 µM (inactive)
[6]
  GI50: > 100 µM (inactive)
[7]
  GI50: > 100 µM (inactive)
[8]
  GI50: > 100 µM (inactive)
[9]
  GI50: > 100 µM (inactive)
[10]
  GI50: > 100 µM (inactive)
[11]
  GI50: > 100 µM (inactive)
[12]
  GI50: > 100 µM (inactive)
[13]
  GI50: > 100 µM (inactive)
[14]
  GI50: > 100 µM (inactive)
[15]
  GI50: > 100 µM (inactive)
[16]
  GI50: > 100 µM (inactive)
[17]
  GI50: > 100 µM (inactive)
[18]
  GI50: > 100 µM (inactive)
[19]
  GI50: > 100 µM (inactive)
[20]
  GI50: > 100 µM (inactive)
[21]
  GI50: > 100 µM (inactive)
[22]
  GI50: > 100 µM (inactive)
[23]
  GI50: > 100 µM (inactive)
[24]
  GI50: > 100 µM (inactive)
[25]
  GI50: > 100 µM (inactive)
[26]
  GI50: > 100 µM (inactive)
[27]
  GI50: > 100 µM (inactive)
[28]
  GI50: > 100 µM (inactive)
[29]
  GI50: > 100 µM (inactive)
[30]
  GI50: > 100 µM (inactive)
[31]
  GI50: > 100 µM
[32]
  GI50: > 100 µM (inactive)
[33]
  GI50: > 100 µM (inactive)
[34]
  GI50: > 100 µM (inactive)
[35]
  GI50: > 100 µM (inactive)
[36]
  GI50: > 100 µM (inactive)
[37]
  GI50: > 100 µM (inactive)
[38]
  GI50: > 100 µM (inactive)
[39]
  GI50: > 100 µM (inactive)
[40]
  GI50: > 100 µM (inactive)
[41]
  GI50: > 100 µM (inactive)
[42]
  GI50: > 100 µM (inactive)
[43]
  GI50: > 100 µM (inactive)
[44]
  GI50: > 100 µM (inactive)
[45]
  GI50: > 100 µM (inactive)
[46]
  GI50: > 100 µM (inactive)
[47]
  GI50: > 100 µM (inactive)
[48]
  GI50: > 100 µM (inactive)
[49]
  GI50: > 100 µM (inactive)
[50]
  GI50: > 100 µM (inactive)
[51]
  GI50: > 100 µM (inactive)
[52]
  GI50: > 100 µM (inactive)
[53]
  GI50: > 100 µM (inactive)
[54]
  GI50: > 100 µM (inactive)
[55]
  GI50: > 100 µM (inactive)
[56]
  GI50: > 100 µM (inactive)

## CC1=C[C@@H](C)C[C@]2(C)CC[C@H](O2)[C@]23CC[C@](C)(C[C@H](O2)[C@@H]2O[C@@](C)(CC2=O)[C@@H](O)[C@H]2CC[C@@]4(CCC[C@@H](O4)[C@H](C)C(=O)O[C@H]4C[C@H]([C@]5(O)OCC[C@H](C)[C@@H]5O)O[C@H]4C=C1)O2)O3
[1]
  GI50: 0.00692 µM (active)
[2]
  GI50: 0.00157 µM (active)
[3]
  GI50: 0.0371 µM (active)
[4]
  GI50: 0.0632 µM (active)
[5]
  GI50: 0.0027 µM (active)
[6]
  GI50: 0.0035 µM (active)
[57]
  GI50: 0.00173 µM (active)
[7]
  GI50: 0.00157 µM (active)
[9]
  GI50: 0.00148 µM (active)
[10]
  GI50: 0.0015 µM (active)
[58]
  GI50: 0.0601 µM (active)
[11]
  GI50: 0.00226 µM (active)
[12]
  GI50: < 0.001 µM (active)
[13]
  GI50: 0.00127 µM (active)
[14]
  GI50: 0.00757 µM (active)
[15]
  GI50: < 0.001 µM (active)
[16]
  GI50: 0.00113 µM (active)
[17]
  GI50: 0.0586 µM (active)
[18]
  GI50: 0.00461 µM (active)
[19]
  GI50: 0.00159 µM (active)
[21]
  GI50: 0.00146 µM (active)
[22]
  GI50: 0.00165 µM (active)
[23]
  GI50: 0.00229 µM (active)
[24]
  GI50: 0.002 µM (active)
[25]
  GI50: 0.00545 µM (active)
[26]
  GI50: 0.00473 µM (active)
[27]
  GI50: 0.00344 µM (active)
[28]
  GI50: 0.00339 µM (active)
[30]
  GI50: 0.00188 µM (active)
[31]
  GI50: 0.00796 µM
[32]
  GI50: 0.0134 µM (active)
[33]
  GI50: 0.897 µM (active)
[34]
  GI50: 0.0186 µM (active)
[35]
  GI50: 0.0146 µM (active)
[36]
  GI50: 0.075 µM (active)
[38]
  GI50: 0.0148 µM (active)
[39]
  GI50: < 0.001 µM (active)
[40]
  GI50: 0.0113 µM (active)
[41]
  GI50: 0.383 µM (active)
[42]
  GI50: 0.00408 µM (active)
[43]
  GI50: 0.00527 µM (active)
[59]
  GI50: 0.0346 µM (active)
[45]
  GI50: 0.0684 µM (active)
[46]
  GI50: 0.00397 µM (active)
[47]
  GI50: 0.0024 µM (active)
[48]
  GI50: 0.00185 µM (active)
[49]
  GI50: 0.00147 µM (active)
[50]
  GI50: 0.0244 µM (active)
[51]
  GI50: 0.0118 µM (active)
[52]
  GI50: 0.00115 µM (active)
[53]
  GI50: 0.0233 µM (active)
[54]
  GI50: 0.00528 µM (active)
[55]
  GI50: 0.00429 µM (active)
[56]
  GI50: 0.00826 µM (active)
